# According to publication PMC5988308, “Rhodanine derivatives as potent anti-HIV and anti-HSV microbicides” (PLoS ONE, 2018):
# Where two headings read alike, the source gives them in different places.
# Columns and labels:
# [1] = test system: HSV-2 acyclovir resistant; assay: HSV-2 acyclovir resistant plaque reduction assay on Vero cells; assay type: cell-based; conditions: Human alphaherpesvirus 2, Vero, read-out: HSV-2 acyclovir resistant EC50
# Method: (§1) Clinical isolates of HSV-1 and HSV-2 were kindly provided by Prof. M. Pistello, University of Pisa, Italy. HSV-1 and HSV-2 strains were propagated and titrated by plaque assay on Vero cells. A HSV-2 strain with phenotypic resistance to acyclovir was generated by serial passage in the presence of increasing concentrations of acyclovir, as previously described.
# The effect of the rhodanine derivatives on HSV infection was evaluated by plaque reduction assay. Vero cells were pre-plated 24 h in advance in 24-well plates at a density of […]. Increasing concentrations of compounds were mixed with HSV-2 (MOI 0.001 pfu/cell) or HSV-2 acyclovir resistant (MOI 0.001) or HSV-1 (MOI 0.0005) or and incubated for 1 hour at 37°C. The mixtures were subsequently added to the cells, which were then incubated at 37°C for 2 h. […] After further incubation at 37°C for 24 h (HSV-2 and HSV-2 R Acy) or 48 h (HSV-1), cells were fixed and stained with 0.1% crystal violet in 20% ethanol and viral plaques counted. […] The selectivity index (SI) was calculated by dividing the CC50 by the EC50 value.
# All results are presented as the mean values from three independent experiments. The EC50 values for inhibition curves were calculated by regression analysis using the software GraphPad Prism (GraphPad Software, San Diego, California, U.S.A.) by fitting a variable slope-sigmoidal dose–response curve. […]
# HSV-2 = HSV-2 plaque reduction assay on Vero cells; assay type: cell-based; conditions: Vero cells
# Method: as §1
# (§2) The effect of the rhodanine derivatives on HSV infection was evaluated by plaque reduction assay. Vero cells were pre-plated 24 h in advance in 24-well plates at a density of […]. Increasing concentrations of compounds were mixed with HSV-2 (MOI 0.001 pfu/cell) or HSV-2 acyclovir resistant (MOI 0.001) or HSV-1 (MOI 0.0005) or and incubated for 1 hour at 37°C. The mixtures were subsequently added to the cells, which were then incubated at 37°C for 2 h. The virus inoculum was then removed and the cells washed and overlaid with a medium containing 1.2% methylcellulose (Sigma). After further incubation at 37°C for 24 h (HSV-2 and HSV-2 R Acy) or 48 h (HSV-1), cells were fixed and stained with 0.1% crystal violet in 20% ethanol and viral plaques counted. The effective concentration producing 50% reduction (EC50) and 90% reduction (EC90) in plaque formation was determined using Prism software by comparing drug-treated with wells treated with medium and solvent. The selectivity index (SI) was calculated by dividing the CC50 by the EC50 value.
# (§3) All results are presented as the mean values from three independent experiments. The EC50 values for inhibition curves were calculated by regression analysis using the software GraphPad Prism (GraphPad Software, San Diego, California, U.S.A.) by fitting a variable slope-sigmoidal dose–response curve. Acyclovir was purchased from Sigma Aldrich (Milan, Italy).
# [2] = Vero cell viability (MTS assay); assay type: cell-based; conditions: African green monkey
# Method: African green monkey fibroblastoid kidney cells (Vero, ATCC CCL-81) were grown as monolayers in Eagle's minimal essential medium (MEM) (Gibco/BRL, Gaithersburg, MD) supplemented with 10% heat inactivated fetal calf serum (FCS) and 1% antibiotic-antimycotic solution (Zell Shield, Minerva Biolabs GmbH, Berlin, Germany).
# Cell viability was measured using the MTS [3-(4,5-dimethylthiazol-2-yl)-5-(3-carboxymethoxyphenyl)-2-(4-sulfophenyl)-2H-tetrazolium] assay. Cell cultures were seeded in 96-well plates were incubated with different concentrations of compounds in triplicate under the same experimental conditions described for the antiviral assays. Cell viability was determined using the CellTiter 96 Proliferation Assay Kit (Promega, Madison, WI, USA) according to the manufacturer's instructions. Absorbances were measured using a Microplate Reader (Model 680, BIORAD) at 490 nm. The effect on cell viability at different concentrations of the compound was expressed as a percentage, by comparing absorbances of treated cells with those of cells incubated with culture medium and equal volumes of vehicle.
# HSV-1 = HSV-1 plaque reduction assay on Vero cells; assay type: cell-based; conditions: Human alphaherpesvirus 1, Vero cells, read-out: HSV-1 EC50
# Method: as §1, §2, §3
# [3] = test system: HIV-1 NL4.3 (CXCR4-tropic strain); assay: Antiviral activity on TZM-bl cells infected with HIV-1 NL4.3 (CPRG assay); assay type: cell-based
# Method: After 48 h of incubation, the medium was removed and viral infection was quantified using a β-galactosidase (CPRG) assay (Roche). Twenty thousand TZM-bl cells/well were seeded in 96-well plates in complete DMEM supplemented with 30 μg/mL DEAE-dextran (Sigma-Aldrich). […] Vehicle (0.1% dimethyl sulfoxide [DMSO])-treated cells served as a negative control. […] After 2 days, viral infection was quantified using a CPRG assay (Roche). […] To evaluate the cell toxicity of the compounds, the metabolic XTT [2,3-bis-(2-methoxy-4-nitro-5-sulfophenyl)-2H-tetrazolium-5-carboxanilide] test (Sigma-Aldrich) was performed according to the manufacturer’s instructions.
# [4] = test system: recombinant HIV-1 integrase Y143R; assay: Antiviral activity on human CD4+ T lymphocytes, integrase mutant Y143R; assay type: cell-based; conditions: Human immunodeficiency virus 1, read-out: Y143R EC50
# [5] = Cytotoxicity on TZM-bl cells (XTT test); assay type: cell-based; conditions: human, read-out: Citotoxicity (TZM-bl cells) CC50
# Method: (§4) The human TZM-bl indicator cell line (obtained from the NIH AIDS reagents program, cat. Nr 8129 (www.aidsreagent.org) and maintained at 37°C and 5% CO2 in Dulbecco’s modified Eagle’s medium (DMEM) medium containing 10% fetal bovine serum, 50 μg/mL penicillin, and 50 μg/mL streptomycin. The HIV-1 laboratory strains NL(AD8) (NIH AIDS reagents program, cat.nr 11346), NL4.3 (NIH AIDS reagents program, cat. Nr. 114) were titrated as previously reported. Briefly, serial 5-fold dilutions of each virus were made in quadruplicate wells in 96-well culture plates, in a total volume of 100 μL of growth medium (DMEM), for a total of 8 dilution steps. Freshly trypsinized cells (20,000 cells in 100 μL of growth medium containing 75 μg/mL DEAE-dextran) were added to each well, and the plates were incubated at 37°C in a humidified 5% CO2-95% air environment. After 48 h of incubation, the medium was removed and viral infection was quantified using a β-galactosidase (CPRG) assay (Roche). Twenty thousand TZM-bl cells/well were seeded in 96-well plates in complete DMEM supplemented with 30 μg/mL DEAE-dextran (Sigma-Aldrich). Three hundred times the 50% tissue culture infective dose (TCID50)/mL of each strain was pretreated for 1 h at 37°C with six serial dilutions ([…] to 3.2 nM) of each compound and then added to the cells, as previously described. Vehicle (0.1% dimethyl sulfoxide [DMSO])-treated cells served as a negative control. […] After 2 days, viral infection was quantified using a CPRG assay (Roche). The inhibitory curves were fitted by nonlinear regression, allowing for the calculation of the 50% inhibitory concentration (IC50) using the Prism software. To evaluate the cell toxicity of the compounds, the metabolic XTT [2,3-bis-(2-methoxy-4-nitro-5-sulfophenyl)-2H-tetrazolium-5-carboxanilide] test (Sigma-Aldrich) was performed according to the manufacturer’s instructions.
# [6] = test system: HIV-1 AD8 (CCR5-tropic strain); assay: Antiviral activity on TZM-bl cells infected with HIV-1 AD8 (CPRG assay); assay type: cell-based; conditions: for alteration of antiviral activity when pre-incubated with serum: HIV-1 laboratory strains
# Method: as §4
# HIV-1 NL 4.3 WT = assay: Antiviral activity on human CD4+ T lymphocytes, NL4.3 WT; assay type: cell-based; conditions: Human immunodeficiency virus 1, read-out: NL 4.3 WT EC50
# Method: (§5) The antiviral activity and cytotoxicity of compounds 2, 9e and 9f was tested also on freshly purified human CD4^+ T lymphocytes obtained from healthy blood donors (informed consent available) as described previously on HIV laboratory strain NL4.3 and AD8 [33, 34].
# [7] = test system: recombinant HIV-1 integrase Q148H, G140S; assay: Antiviral activity on human CD4+ T lymphocytes, integrase mutant Q148H, G140S; assay type: cell-based; conditions: Human immunodeficiency virus 1, read-out: Q148H, G140S EC50
# HIV-1 AD8 WT = assay: Antiviral activity on human CD4+ T lymphocytes, AD8 WT; assay type: cell-based; conditions: Human immunodeficiency virus 1, read-out: AD8 WT EC50
# Method: as §5
# HIV-1 AD8 [8] = assay: Inhibition of antiviral activity by fetal bovine serum (TZM-bl, AD8); assay type: cell-based; conditions: FBS 0% to 10%
# Method: To evaluate the binding of compounds to plasma proteins also in a cell based assay, the infection with the HIV laboratory strain AD8 was performed in absence or in presence of different concentrations of Fetal Bovine Serum (FBS): 2%, 5% and 10%. The representative compound 2 was pre-incubated at different concentrations ranging from 10 μM to 3.2 nM with 300 TCID50 /mL of AD8 in DMEM supplemented with 50 μg/mL penicillin, 50 μg/mL streptomycin, 30 μg/mL DEAE-dextran and FBS at the concentration described above. Maraviroc was used as control. After an hour the mixture was added to 40.000 TZM-bl cells/well plated in a 96-well plate and after two days the infection was quantified using a CPRG assay (Roche) as previously described.
# HIV-1 AD8 [9] = assay: Inhibition of antiviral activity by purified bovine serum albumin (TZM-bl, AD8); assay type: cell-based
# Method: To confirm the binding of compound 2 to serum albumin, infection was performed in presence of different concentrations of purified bovine serum albumin (BSA, Sigma Aldrich) starting from the concentration that is usually present in FBS serum (35 mg/mL, 1X) and increasing to a five-fold concentration (175 mg/mL) up to a ten-fold concentration (350 mg/mL). […] After one hour, the mixture was added to 40.000 TZM-bl cells/well plated in DMEM supplemented with 50 μg/mL penicillin, 50 μg/mL streptomycin, 30 μg/mL DEAE-dextran and 10% FBS in a 96-well plate. After two days the infection was evaluated through a CPRG assay.
# NL4.3 HIV strain = assay: Antiviral activity in microbicide gel formulation, transwell experiment, TZM-bl cells; assay type: cell-based, HIV-1; conditions: Human immunodeficiency virus 1, gel at 50%
# Method: All the semi-solid formulations were prepared adding at the pre-gel solution reported above hydroxyethyl cellulose (HEC) (1.8% w/v). In all samples, 0.2% v/v propionic acid was added to aqueous solution in order to preserve form bacteria and mold contamination. HEC was dispersed in the pre-gel solution at 25°C under magnetic stirring, overnight.
# Antiviral activity of compound 2 on NL4.3 HIV strain was evaluated also in a gel formulation. To reproduce more physiological conditions, TZM-bl cells were seeded into transwells and the gel was applied onto the cell monolayer at 50% fixed concentration with serial drug dilutions as previously described. Briefly, 4x10^4 TZM-bl cells were plated into each transwell apical chamber of a 24-well plate (pore size 3μm and diameter 6,5 mm, Corning) containing medium in the bottom plate and cultured overnight. For efficacy testing, 60 TCID50 of virus was added to each apical well in the presence of 100 μL of compound 2 gel, tenofovir gel or blank gel at the final drug concentrations of 25μM, 10 μM and 5 μM. Inhibition of infection was determined as previously based on deviations from blank gel.
# HSA = conditions: cited from earlier work
compound,measurement,setting,value
"Nc1nc2c(ncn2COCCO)c(=O)[nH]1 [ACV, Acyclovir, reference compound]",EC50,[1],31.9 ± 1.16 µM
same,EC50,"HSV-2; Human alphaherpesvirus 2, plaque reduction, compound pre-incubated with virus 1 h at 37°C, read-out: HSV-2 EC50",0.622 ± 0.0211 µM
same,"SI (CC50/EC50), HSV-2",HSV-2,1177
same,CC50,[2]; Citotoxicity (Vero cells) CC50,732 ± 46.2 µM
same,CC50,[2]; Vero cell CC50 (HSV-1),698 ± 72.5 µM
same,CC50,[2]; Vero cell CC50 (HSV-2 acyclovir resistant rows),732 ± 46.2 µM
same,EC50,HSV-1,0.168 ± 0.0413 µM
"Cc1nnc(C(=O)NC(C)(C)c2nc(C(=O)NCc3ccc(F)cc3)c(O)c(=O)n2C)o1 [RAL, raltegravir, reference compound]",EC50,"[3]; Human immunodeficiency virus 1, NL43, TZM-bl, read-out: NL4-3 EC50",0.021 ± 0.003 µM
same,EC50,[4],0.46 ± 0.01 µM
same,CC50,[5],> 20 µM
same,EC50,"[6]; Human immunodeficiency virus 1, TZM-bl, read-out: AD8 EC50",0.0065 ± 0.001 µM
same,EC50,"[6]; Human immunodeficiency virus 1, TZM-bl, read-out: AD8 EC50 a",0.0135 ± 0.002 µM
same,alteration of antiviral activity when pre-incubated with serum,[6]; TZM-bl cells,did not show any alteration of antiviral activity
same,EC50,HIV-1 NL 4.3 WT,0.003 ± 0.002 µM
same,EC50,[7],0.8 ± 0.012 µM
same,EC50,HIV-1 AD8 WT,0.002 ± 0.003 µM
maraviroc [reference compound],effect of FBS concentration on antiviral activity,HIV-1 AD8 [8],did not change
same,EC50,"[3]; TZM-bl cells, pre-incubation in complete medium containing fetal bovine serum (FBS), read-out: NL4-3 EC50 a",> 20 µM
same,EC50,"[3]; TZM-bl cells, pre-incubation with virus without serum, read-out: NL4-3 EC50",> 20 µM
same,"influence of BSA on antiviral activity, any concentration of BSA",HIV-1 AD8 [9],not influenced
same,alteration of antiviral activity when pre-incubated with serum,[6]; TZM-bl cells,did not show any alteration of antiviral activity
same,EC50,"[6]; TZM-bl cells, pre-incubation in complete medium containing fetal bovine serum (FBS), read-out: AD8 EC50 a",0.0255 ± 0.003 µM
same,EC50,"[6]; TZM-bl cells, pre-incubation with virus without serum, read-out: AD8 EC50",0.0367 ± 0.007 µM
"C[C@H](Cn1cnc2c(N)ncnc21)OCP(=O)(O)O [tenofovir, reference compound]",EC50,NL4.3 HIV strain,4.5 µM
CC(=O)Nc1ccc(O)cc1 [Paracetamol],Kd,HSA,1280 ± 690 µM
